Measured values reported in publication PMC11788587, “Validating Low‐Dose Iohexol as a Marker for Glomerular Filtration Rate by In Vitro and In Vivo Studies” (Clinical and Translational Science, 2025).

Assays:
[1] = biological target: T1, hOAT3 (Homo sapiens, UniProt Q8TCC7); test: Substrate assessment: iohexol uptake in 293 cells expressing hOAT3 vs control; format: in vitro ADME; conditions: 10 μM iohexol, median (95% CI)
T1 construct: expressed in transfected cells; host or cells: HEK-293 (293) cells, pEBTetD plasmid, doxycycline-induced
T1 sequence (Q8TCC7 1-542): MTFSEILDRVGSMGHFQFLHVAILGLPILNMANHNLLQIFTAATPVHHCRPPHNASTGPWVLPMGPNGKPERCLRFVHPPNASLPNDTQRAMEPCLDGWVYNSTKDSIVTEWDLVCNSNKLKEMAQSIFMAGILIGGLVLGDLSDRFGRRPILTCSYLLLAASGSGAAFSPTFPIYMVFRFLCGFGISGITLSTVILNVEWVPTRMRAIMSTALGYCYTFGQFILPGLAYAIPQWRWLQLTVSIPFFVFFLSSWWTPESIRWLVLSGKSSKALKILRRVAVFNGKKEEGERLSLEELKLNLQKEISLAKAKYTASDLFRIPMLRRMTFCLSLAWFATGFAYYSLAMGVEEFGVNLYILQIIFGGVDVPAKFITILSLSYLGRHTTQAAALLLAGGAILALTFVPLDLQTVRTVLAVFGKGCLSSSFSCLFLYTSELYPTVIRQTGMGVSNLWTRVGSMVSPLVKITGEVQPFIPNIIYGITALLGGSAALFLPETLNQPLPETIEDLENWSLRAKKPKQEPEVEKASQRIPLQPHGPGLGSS
From the text: (§1) We characterized the inhibitory potential of iohexol on major drug transporters recommended by regulatory agencies, which were previously assessed in a clinical transporter phenotyping cocktail study. These transporters include hOAT1, hOAT3, hOCT1, hOCT2, hMATE1, hMATE2K, human organic anion transporter polypeptides (hOATP)1B1, hOATP1B3, and human multidrug resistance protein (hMDR)1. Additionally, we investigated whether iohexol is a substrate for any of the renal transporters among these, including hOAT1/3, hOCT1/2, and hMATE1/2K. Cell‐based uptake assays were used to assess the activities of hOAT1/3, hOCT1/2, hMATE1/2K, and hOATP1B1/1B3. Inside‐out membrane vesicle uptake assays were used to evaluate the activity of hMDR1.
(§2) For substrate assessments, iohexol was incubated with stably transfected HEK‐293 cells expressing one of the following transporters: hOAT1, hOAT3, hOCT1, hOCT2, hMATE1, or hMATE2K, as well as with control cells lacking transporter expression. Stably transfected cell lines containing pEBTetD plasmids with wild‐type human transporter cDNAs were generated as previously described. Transporter expression was induced by adding 1 μg/mL doxycycline to the growth medium for at least 20 h. Iohexol would be considered a substrate for these transporters if: (1) the ratio of iohexol uptake in cells expressing the transporter to that in control cells was ≥ 2, and (2) a known inhibitor of the transporter reduced iohexol uptake to ≤ 50% at concentrations ≥ 10 times its inhibition constant or half‐maximal inhibitory concentration.
(§3) Uptake assays were performed using stably transfected 293 cells, with or without the expression of one of the following transporters: hOAT1, hOAT3, hOCT1, hOCT2, hMATE1, or hMATE2K, as previously described.^1
(§4) For the substrate assessment, cells were incubated with 10 µM iohexol for 10 minutes and 30 minutes for each transporter. Inhibition assays were performed using specific standard substrates for each transporter: 10 µM para-aminohippuric acid (PAH) for hOAT1, 3 µM estrone-3-sulfate (E3S) for hOAT3, 50 µM metformin for hOCT1, 5 µM metformin for hOCT2, and 3 µM 1-methyl-4-phenylpyridinium (MPP+) for hMATE1 and hMATE2K. […]
(§5) R version 4.2.1 (R Foundation for Statistical Computing, Vienna, Austria) was used for statistical evaluations and data visualization. The data analysis approach for the in vitro study was detailed by Hsin CH et al..^1 In brief, for transport assays, the initial uptake rate was calculated by normalizing the substrate concentration to both the protein concentration and the incubation time for each dish or well. The transporter-mediated uptake rate (net uptake) was determined by performing an element-wise subtraction of uptake rates from different conditions. […]

[2] = design: method as in PMID 27679715; conditions: cited from earlier work
[3] = biological target: T2, hMATE1 (Homo sapiens, UniProt Q96FL8); test: Substrate assessment: iohexol uptake in 293 cells expressing hMATE1 vs control; format: in vitro ADME; conditions: 10 μM iohexol, median (95% CI)
T2 construct: expressed in transfected cells; host or cells: HEK-293 (293) cells, pEBTetD plasmid, doxycycline-induced
T2 sequence (Q96FL8 1-570): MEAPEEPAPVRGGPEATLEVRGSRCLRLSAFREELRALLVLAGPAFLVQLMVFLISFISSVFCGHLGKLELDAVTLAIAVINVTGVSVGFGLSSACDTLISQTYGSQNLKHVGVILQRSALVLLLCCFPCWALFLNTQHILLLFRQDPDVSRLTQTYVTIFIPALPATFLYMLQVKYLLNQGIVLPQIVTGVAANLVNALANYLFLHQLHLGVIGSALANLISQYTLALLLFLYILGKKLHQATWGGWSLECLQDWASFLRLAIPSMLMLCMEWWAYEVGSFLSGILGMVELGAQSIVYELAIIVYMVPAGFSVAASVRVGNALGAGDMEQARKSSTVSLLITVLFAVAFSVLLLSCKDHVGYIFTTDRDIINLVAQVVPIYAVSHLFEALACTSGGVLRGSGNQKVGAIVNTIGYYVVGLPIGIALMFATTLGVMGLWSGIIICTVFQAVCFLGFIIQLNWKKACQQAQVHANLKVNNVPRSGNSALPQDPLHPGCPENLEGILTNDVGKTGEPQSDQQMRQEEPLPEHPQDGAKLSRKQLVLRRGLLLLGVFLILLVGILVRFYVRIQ
From the text: as §1, §2, §3, §4, §5

In the case of CC(=O)N(CC(O)CO)c1c(I)c(C(=O)NCC(O)CO)c(I)c(C(=O)NCC(O)CO)c1I (stereo not drawn) [iohexol], the “Differences in intracellular accumulation (expression on minus off)” value (“Differences … (expression on minus off)” below) ([1]; 10 minutes) is reported as 0.6 (0.1 to 2) pmol/mg protein, the “Uptake ratio (transporter-expressing vs non-expressing cells)” value ([1]; 10 minutes) is reported as 1.1 (1 to 1.4) and the “Differences … (expression on minus off)” value ([1]; 30 minutes) is reported as 0.89 (0.19 to 1.5) pmol/mg protein. The “Uptake ratio (transporter-expressing vs non-expressing cells)” value ([1]; 30 minutes) was 1.2 (1.1 to 1.3), the Plasma protein binding [2] was 1.5% and the “Differences … (expression on minus off)” value ([3]; 10 minutes) was 0.36 (-1.2 to 1.7) pmol/mg protein. For the same molecule, the “Uptake ratio (transporter-expressing vs non-expressing cells)” value ([3]; 10 minutes) was 1.1 (0.84 to 1.2), the “Differences … (expression on minus off)” value ([3]; 30 minutes) was -0.67 (-1.6 to 0.61) pmol/mg protein and the “Uptake ratio (transporter-expressing vs non-expressing cells)” value ([3]; 30 minutes) was 0.92 (0.78 to 1.1).
